Test results from article PMC9007913 (Angewandte Chemie (International ed. in English), 2022).

Tested on: ID8 cells
Assay: Inhibition assay of cellular uptake of OCTL14
Type: cell-based, murine
Details: pre-blocked 5-30 min, then 2 μM OCTL14 for 30 min

SMILES | change in cellular uptake of OCTL14 after pretreatment with inhibitor
CN(C)C(=O)CCSC(SCCC(=O)O)c1cccc(/C=C/c2ccc3ccc(Cl)cc3n2)c1 (stereo not shown) [MK-571] | little change in cellular uptake
O=C1OC(c2ccc(O)c(S(=O)(=O)O)c2)(c2ccc(O)c(S(=O)(=O)O)c2)c2c(Br)c(Br)c(Br)c(Br)c21 [BSP, bromsulphthalein] | did not result in significant changes in cellular uptake
O=C(N/N=C/c1cc(O)c(O)cc1O)c1cc2ccccc2cc1O [Dyngo 4a] | did not result in any appreciable change in cellular uptake
O=C1NC(=NS(=O)(=O)c2cccc3ccccc23)S/C1=C\c1ccc(Br)cc1 [Pitstop 2] | did not result in any appreciable change in cellular uptake
